In publication PMC7583591 (Computational Biology and Chemistry, 2020):

Biological target: SARS-CoV-2 M^pro (Severe acute respiratory syndrome coronavirus 2, UniProt P0DTD1)
Experiment: biochemical
Conditions: for inhibition at 50 µM: read-out: % Protease inhibition at 50 μM ligand concentration

Compound	IC50 [µM]	inhibition at 50 µM [%]	% Protease inhibition at 50 μM ligand concentration (50 μM) [%]
Cc1cc(O)c2c(=O)c3c(O)cc(O)c4c5c(O)cc(O)c6c(=O)c7c(O)cc(C)c8c1c2c(c34)c(c78)c65 [Hypericin]	63.6 ± 5.7	42.8 ± 8.2	–
C[S@@+]([O-])CCCCN=C=S [L-sulforaphane]	> 128	8.4 ± 2.7	–
Oc1ccc(/C=C/c2cc(O)cc(O)c2)cc1 [Resveratrol]	> 128	1.8 ± 0.9	–
O=C(Nc1ccccc1-c1cn2c(CN3CCNCC3)csc2n1)c1cnc2ccccc2n1 [SRT1720]	–	–	9.3 ± 2.2
